Some results are limits rather than exact numbers.

In one test the test system is SIVmac239 chimeric virus. As to the kind of experiment: Gag processing of SIVmac239 chimeric mutants with HIV-1 CA-SP1 residues (Western blot). It counts as cell-based. The settings on record: SIV DM chimeric virus (printed SWV.DM), 1 μg/ml. The text has this:
A panel of SIV chimeric constructs harboring various residues of NL4-3 CA-SP1 boundary region was generated using the SIVmac239 molecular clone by employing PCR and cloning procedures described above. SIV mac239 was used to generate the SIV DD and DE constructs. The SIV DD construct was used to generate SIV DM. Different SIV chimeric constructs were produced in the PCR by varying respective mutagenic upstream and downstream primers corresponding to each chimera (Table 1). Each of these parallel two adjacent PCR fragments was gel purified and directly used without phospohorylation treatment for a subsequent amplification with universal upstream primer (Primer. 31) and downstream primer (Primer 32). This product was gel purified, digested with BamHI and SbfI, and then ligated into the BamHI and SbfI sites of SIVmac239 proviral DNA clone. The proviral DNA clones were then screened by automatically sequencing using a Taq Dye Deoxy Terminator cycle Sequencer Kit (Applied Biosystems) individually using an internal primer (Primer. 39). Following the verification the mutations the proviral DNA clones were used for various future studies. […]
Residues A364 through V370 were inserted into the analogous position of the Gag SP1 domain in the DSB-resistant retrovirus SIV (Mac 239 isolate). […] Next, the effect of DSB on the Gag processing phenotype of each of the chimeric viruses was determined. […]

In a further test the test system is HIV. Particulars: chronically-infected cells, Kanamoto et al.; cited from earlier work.
The subject of test [1] is HIV-1 isolates selected for resistance to DSB. In words: Virus replication assay in H9 cells (p24 ELISA), DSB-resistant and parental viruses. It counts as cell-based. The protocol: Virus stocks derived as described above were further analyzed both phenotypically and genotypically to characterize the nature of their drug-resistance. The resistance of the viruses to 3-O-(3′,3′-dimethylsuccinyl)-betulinic acid (DSB) was determined in virus replication assays. Briefly, the virus stocks were first titered in H9 cells by quantitating the levels of p24 (by ELISA) in cultures 8 days after infection with serial 4-fold dilutions of virus. Virus input was then normalized for a second assay in which each virus is cultured for 8 days in the presence of serial 4-fold dilutions of drug. The IC50 for each virus was determined as the dilution of drug that reduced the p24 endpoint level by 50% as compared to the no-drug control. […] In a subsequent series of experiments, the A364V mutation was engineered into the HIV-1 NL4-3 proviral DNA, which was subsequently transfected into HeLa cells. Resulting virus was collected and used to test the activity of DSB in a viral replication assay, as described above.

Turning to `C=C(C)[C@@H]1CC[C@]2(C(=O)O)CC[C@]3(C)[C@H](CC[C@@H]4[C@@]5(C)CC[C@H](OC(=O)CC(C)(C)C(=O)O)C(C)(C)[C@@H]5CC[C@]43C)[C@@H]12` [DSB, 3-O-(3′,3′-dimethylsuccinyl)betulinic acid], the Gag processing phenotype entry with SIVmac239 chimeric virus is “indicative of sensitivity to DSB”. Besides, the release of virus entry in the test on HIV is “inhibits release of virus from chronically-infected cells”. In addition, the IC50 in test [1] (NL4-3 with engineered A364V mutation (DSB-resistant virus)) was 100 nM; in test [1] (two independently derived DSB-selected virus stocks) it was > 2000 nM; in test [1] (virus cultured in parallel in the absence of drug), 20 nM; in test [1] (wild-type NL4-3), 10 nM.

(Values after patent publication US7537765B2, “Inhibition of HIV-1 replication by disruption of the processing of the viral capsid-spacer peptide 1 protein” (priority 2003, dated 2009).)
